Test [1] deals with T1, CDK2/CycE (Homo sapiens, UniProt P24941).
T1 construct: GST; purchased ProQinase GmbH (Freiburg, Germany); host or cells: insect cells (Sf9)
Nature of the test: CDK2/CycE kinase assay (TR-FRET). The test is classed as biochemical. The settings on record: avg, read-out: CDK2 avg (IC50 [mol/l]). A digest of the protocol: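 GST-tagged human CDK2 and CycE from Sf9 cells, preincubated 15 min with compound, then 25 min at 22° C. with 10 μM ATP and 0.75 μM biotinylated Rb-derived peptide (final). Phospho-substrate read by TR-FRET (anti-pRB pSer807/pSer811, Eu anti-mouse IgG, streptavidin-XL665), 665/620 nm ratio, normalised to no-inhibitor and no-enzyme controls.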
A general note: In TR-FRET formats the signal depends on donor and acceptor labels being close together.

The test system of test [2] is HeLa. Nature of the test: Proliferation assay (crystal violet), HeLa. The settings on record: Homo sapiens, HeLa, 96 h, HeLa cells; 4 days incubation; crystal violet staining; read-out: IC50 inhibition of proliferation, HeLa. The test is classed as cell-based. The procedure, abridged: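 Tumor cells seeded at 1000–5000 cells/well in medium with 10% FCS; after 24 h, compounds added at 0.001–10 μM (0.5% DMSO) for 4 days. Cells fixed with glutaraldehyde, stained with crystal violet, dye dissolved in acetic acid and read at 595 nm. IC50 from 4-parameter fit, normalized to zero-point plate and untreated cells.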

The structures appear in SMILES notation.

`Cc1nsc(Nc2cnc(C(F)(F)F)cn2)c1C(=O)Nc1ccc(OC2CCNCC2)c(F)c1` [Example 431, N-[3-Fluoro-4-(piperidin-4-yloxy)phenyl]-3-methyl-5-{[5-(trifluoromethyl)pyrazin-2-yl]amino}-1,2-thiazole-4-carboxamide]: the IC50 in test [1] is greater than 20 µM; in test [2] it was greater than 10 µM.

Take `Cc1nsc(Nc2cnc(C(F)(F)F)cn2)c1C(=O)Nc1ccc(F)c(O[C@H]2CCN(CC(F)F)C2)c1` [Example 417, N-(3-{[(3S)-1-(2,2-Difluoroethyl)pyrrolidin-3-yl]oxy}-4-fluorophenyl)-3-methyl-5-{[5-(trifluoromethyl)pyrazin-2-yl]amino}-1,2-thiazole-4-carboxamide]: the IC50 in test [1] was greater than 20 µM; in test [2], 0.41 µM.

For the compound `Cc1nsc(Nc2cnc(C(F)(F)F)cn2)c1C(=O)Nc1ccc(OCC2CCN(CCC(F)(F)F)CC2(F)F)nc1` (stereo not drawn) [Example 402, N-(6-{[3,3-difluoro-1-(3,3,3-trifluoropropyl)piperidin-4-yl]methoxy}pyridin-3-yl)-3-methyl-5-{[5-(trifluoromethyl)pyrazin-2-yl]amino}-1,2-thiazole-4-carboxamide], the IC50 was greater than 20 µM in test [1] and 0.34 µM in test [2].

`Cc1nsc(Nc2cnc(C(F)(F)F)cn2)c1C(=O)Nc1ccc(OCCN2CCC(F)(F)CC2)nc1` [Example 407, N-{6-[2-(4,4-Difluoropiperidin-1-yl)ethoxy]pyridin-3-yl}-3-methyl-5-{[5-(trifluoromethyl)pyrazin-2-yl]amino}-1,2-thiazole-4-carboxamide]: the results for the IC50 in test [1] and in test [2] were greater than 20 µM and 0.33 µM, respectively.

Turning to `Cc1nsc(Nc2cnc(C(F)(F)F)cn2)c1C(=O)Nc1ccc(F)c(O[C@H]2CCN(CCC(F)(F)F)C2)c1` [Example 415, N-(4-Fluoro-3-{[(3S)-1-(3,3,3-trifluoropropyl)pyrrolidin-3-yl]oxy}phenyl)-3-methyl-5-{[5-(trifluoromethyl)pyrazin-2-yl]amino}-1,2-thiazole-4-carboxamide], the IC50 is greater than 20 µM in test [1] and 0.35 µM in test [2].

Regarding `Cc1nsc(Nc2cc(C#N)ccn2)c1C(=O)Nc1ccc(OCCCNCC(F)F)nc1` [Example 45, 5-[(4-Cyanopyridin-2-yl)amino]-N-(6-{3-[(2,2-difluoroethyl)amino]propoxy}pyridin-3-yl)-3-methyl-1,2-thiazole-4-carboxamide], the IC50 was no less than 20 µM in test [1] and 10 µM in test [2].

`COCCOc1ccc(NC(=O)c2c(C)nsc2Nc2nc3c(C(F)(F)F)cccc3s2)cc1F` [Example 1, N-[3-Fluoro-4-(2-methoxyethoxy)phenyl]-3-methyl-5-{[4-(trifluoromethyl)-1,3-benzothiazol-2-yl]amino}-1,2-thiazole-4-carboxamide]: the IC50 in test [1] is no less than 20 µM; in test [2], 0.57 µM.

In the case of `Cc1nsc(Nc2cnc(C(F)(F)F)cn2)c1C(=O)Nc1ccc(OCCN(C)C(=O)OC(C)(C)C)nc1` [Example 429, tert-Butyl methyl{2-[(5-{[(3-methyl-5-{[5-(trifluoromethyl)pyrazin-2-yl]amino}-1,2-thiazol-4-yl)carbonyl]amino}pyridin-2-yl)oxy]ethyl}carbannate], the IC50 was greater than 20 µM in test [1] and 0.26 µM in test [2].

In the case of `Cc1nsc(Nc2cnc(C(F)(F)F)cn2)c1C(=O)Nc1ccc(OC[C@H]2CCN(CC(F)(F)F)C2)nc1` [Example 404, 3-Methyl-N-(6-{[(3S)-1-(2,2,2-trifluoroethyl)pyrrolidin-3-yl]methoxy}pyridin-3-yl)-5-{[5-(trifluoromethyl)pyrazin-2-yl]amino}-1,2-thiazole-4-carboxamide], the IC50 is greater than 20 µM in test [1] and 0.25 µM in test [2].

On to `Cc1nsc(Nc2cnc(C(F)(F)F)cn2)c1C(=O)Nc1ccc(F)c(O[C@@H]2CCN(CC(F)(F)F)C2)c1` [Example 413, N-(4-Fluoro-3-{[(3R)-1-(2,2,2-trifluoroethyl)pyrrolidin-3-yl]oxy}phenyl)-3-methyl-5-{[5-(trifluoromethyl)pyrazin-2-yl]amino}-1,2-thiazole-4-carboxamide], for which the IC50 in test [1] was greater than 20 µM; in test [2], 0.27 µM.

Turning to `Cc1nsc(Nc2cc(C#N)ccn2)c1C(=O)Nc1ccc(OCCCN)nc1` [Example 44, N-[6-(3-Aminopropoxy)pyridin-3-yl]-5-[(4-cyanopyridin-2-yl)amino]-3-methyl-1,2-thiazole-4-carboxamide], the IC50 in test [1] is no less than 20 µM; in test [2] it was 10 µM.

As to `Cc1nsc(Nc2cnccn2)c1C(=O)Nc1ccc(OC2CCCN(C(=O)OC(C)(C)C)C2)nc1` (stereo not drawn) [Example 41, tert-Butyl 3-{[5-({[3-methyl-5-(pyrazin-2-ylamino)-1,2-thiazol-4-yl]carbonyl}amino)-pyridin-2-yl]oxy}piperidine-1-carboxylate], the IC50 is no less than 20 µM in test [1] and 10 µM in test [2].

Consider `Cc1nsc(Nc2ccc(C#N)cn2)c1C(=O)Nc1ccc(OC2CCCN(CCF)C2)nc1` (stereo not drawn) [Example 38, 5-[(5-Cyanopyridin-2-yl)amino]-N-(6-{[1-(2-fluoroethyl)piperidin-3-yl]oxy}pyridin-3-yl)-3-methyl-1,2-thiazole-4-carboxamide], for which the IC50 in test [1] was no less than 20 µM; in test [2], 8.1 µM.

For the compound `Cc1nsc(Nc2ccc(C#N)cn2)c1C(=O)Nc1ccc(OCCCNC(=O)OC(C)(C)C)nc1` [Example 46, tert-Butyl [3-({5-[({5-[(5-cyanopyridin-2-yl)amino]-3-methyl-1,2-thiazol-4-yl}-carbonyl)amino]pyridin-2-yl}oxy)propyl]carbamate], the IC50 in test [1] is no less than 20 µM; in test [2], 10 µM.

As for `Cc1nsc(Nc2cnccn2)c1C(=O)Nc1ccc(OCCCN)nc1` [Example 48, N-[6-(3-Aminopropoxy)pyridin-3-yl]-3-methyl-5-(pyrazin-2-ylamino)-1,2-thiazole-4-carboxamide], the IC50 in test [1] is no less than 20 µM; in test [2], 10 µM.

As to `Cc1nsc(Nc2ccc(C#N)cn2)c1C(=O)Nc1ccc(OC2CCCNC2)nc1` (stereo not drawn) [Example 37, 5-[(5-Cyanopyridin-2-yl)amino]-3-methyl-N-[6-(piperidin-3-yloxy)pyridin-3-yl]-1,2-thiazole-4-carboxamide], the IC50 was no less than 20 µM in test [1] and 10 µM in test [2].

Take `Cc1nsc(Nc2cnc3ccccc3n2)c1C(=O)Nc1ccc(NCCN(C)C(=O)OC(C)(C)C)nc1` [Example 434, tert-Butyl methyl(2-{[5-({[3-methyl-5-(quinoxalin-2-ylamino)-1,2-thiazol-4-yl]carbonyl}amino)pyridin-2-yl]amino}ethyl)carbamate]: the IC50 in test [1] was greater than 20 µM; in test [2] it was 8 µM.

Turning to `CCN1CCC(Oc2ccc(NC(=O)c3c(C)nsc3Nc3cnc(C(F)(F)F)cn3)cn2)C(F)(F)C1` (stereo not drawn) [Example 406, N-{6-[(1-Ethyl-3,3-difluoropiperidin-4-yl)oxy]pyridin-3-yl}-3-methyl-5-{[5-(trifluoromethyl)pyrazin-2-yl]amino}-1,2-thiazole-4-carboxamide], the IC50 is greater than 20 µM in test [1] and 0.16 µM in test [2].

Take `COC(=O)c1cccc(NC(=O)c2c(C)nsc2Nc2cnc3ccccc3n2)c1` [Example 50, Methyl 3-({[3-methyl-5-(quinoxalin-2-ylamino)-1,2-thiazol-4-yl]carbonyl}amino)-benzoate]: the results for the IC50 in test [1] and in test [2] were no less than 20 µM and 1.9 µM, respectively.

Regarding `Cc1nsc(Nc2cnc(C(F)(F)F)cn2)c1C(=O)Nc1ccc(F)c(OC[C@H]2CCCN(CC(F)(F)F)C2)c1` [Example 419, N-(4-Fluoro-3-{[(3S)-1-(2,2,2-trifluoroethyl)piperidin-3-yl]methoxy}phenyl)-3-methyl-5-{[5-(trifluoromethyl)pyrazin-2-yl]amino}-1,2-thiazole-4-carboxamide], the values for the IC50 in test [1] and in test [2] were greater than 20 µM and 0.76 µM, respectively.

Regarding `Cc1nsc(Nc2cnc(C(F)(F)F)cn2)c1C(=O)Nc1ccc(F)c(O[C@@H]2CCN(CCC(F)(F)F)C2)c1` [Example 414, N-(4-Fluoro-3-{[(3R)-1-(3,3,3-trifluoropropyl)pyrrolidin-3-yl]oxy}phenyl)-3-methyl-5-{[5-(trifluoromethyl)pyrazin-2-yl]amino}-1,2-thiazole-4-carboxamide], the IC50 was greater than 20 µM in test [1] and 0.29 µM in test [2].

Consider `Cc1nsc(Nc2cnc(C(F)(F)F)cn2)c1C(=O)Nc1ccc(F)c(OC[C@H]2CCCN(CCC(F)(F)F)C2)c1` [Example 418, N-(4-Fluoro-3-{[(3S)-1-(3,3,3-trifluoropropyl)piperidin-3-yl]methoxy}phenyl)-3-methyl-5-{[5-(trifluoromethyl)pyrazin-2-yl]amino}-1,2-thiazole-4-carboxamide], for which the IC50 in test [1] was greater than 20 µM; in test [2], 1.2 µM.

As for `Cc1nsc(Nc2cc(C#N)ccn2)c1C(=O)Nc1ccc(OC2CCCNC2)nc1` (stereo not drawn) [Example 35, 5-[(4-Cyanopyridin-2-yl)amino]-3-methyl-N-[6-(piperidin-3-yloxy)pyridin-3-yl]-1,2-thiazole-4-carboxamide], the IC50 in test [1] is no less than 20 µM; in test [2], 10 µM.

For the compound `Cc1nsc(Nc2cnc(C(F)(F)F)cn2)c1C(=O)Nc1ccc(F)c(OCCCNC(=O)C(F)(F)F)c1` [Example 427, N-(4-Fluoro-3-{3-[(trifluoroacetyl)amino]propoxy}phenyl)-3-methyl-5-{[5-(trifluoro-methyl)pyrazin-2-yl]amino}-1,2-thiazole-4-carboxamide], the IC50 is no less than 20 µM in test [1] and 0.86 µM in test [2].

Source of the values: patent US20170334899A1, “AMINO-SUBSTITUTED ISOTHIAZOLES” (Bayer Pharma Aktiengesellschaft, priority 2014, published 2017).
